Columns and labels:
Type in all cases: in vivo
[1] = tested on: larvae of the banded cucumber beetle (Diabrotica balteata); assay: Diabrotica balteata spray test; details: 168 h, after 7 days, read-out: activity (efficacy: seedlings grown); for pest or weed control at 100 g/ha: application rate 100 g/ha (=32 pg/well); for pest or weed control at 500 g/ha: application rate 500 g/ha (=160 pg/well)
In short: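 Wheat seedlings, germinated 1 day on agar (5 seeds/well), sprayed with active compound in acetone/DMF diluted in water containing 1000 ppm emulsifier, then infested with 10-20 D. balteata larvae. Efficacy (%) scored after 7 days: 100% = seedlings grown as untreated uninfested control, 0% = no seedlings grown.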

[2] = tested on: green peach aphid (Myzus persicae); assay: Myzus persicae oral test; details: 120 h, application rate 4 ppm, after 5 days
In short: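 Acetone stock (1 pbw compound/100 pbw solvent) diluted in water; mixed with sugar-supplemented IPL41 medium; parafilm-sealed; mixed aphid population sucks through film; mortality % read at 5 d.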

[3] = tested on: green peach aphid (Myzus persicae); assay: Myzus persicae spray test; details: 120 h, after 5 days; for mortality at 100 g/ha: application rate 100 g/ha; for mortality at 500 g/ha: application rate 500 g/ha
In short: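 Chinese cabbage leaf disks carrying all instars of M. persicae sprayed with compound in acetone/DMF, diluted in water with 1000 ppm alkylarylpolyglycol ether emulsifier. Percent mortality scored after 5 days (100% = all aphids killed).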

[4] = tested on: larvae of the southern green stink bug (Nezara viridula); assay: Nezara viridula spray test; details: 96 h, after 4 days; for mortality at 100 g/ha: application rate 100 g/ha; for mortality at 500 g/ha: application rate 500 g/ha
In short: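 Compound in acetone/dimethylformamide, diluted in water with 1000 ppm alkylarylpolyglycol ether emulsifier, sprayed onto barley plants carrying stink bug larvae. Mortality (%) scored after 4 days, 100% meaning all insects killed.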

[5] = tested on: brown planthopper (Nilaparvata lugens); assay: Nilaparvata lugens spray test; details: 96 h, after 4 days; for mortality at 100 g/ha: application rate 100 g/ha; for mortality at 500 g/ha: application rate 500 g/ha
Method: Nilaparvata lugens—Spray Test
Solvent: 78.0 parts by weight of acetone • • 1.5 parts by weight of dimethylformamide
Emulsifier: alkylarylpolyglycol ether
To produce a suitable preparation of active compound, 1 part by weight of active compound is mixed with the stated amount of solvents and is diluted with water, containing an emulsifier concentration of 1000 ppm, to the desired concentration. Further test concentrations are prepared by dilution with emulsifier containing water.
Rice plants (Oryza sativa) are sprayed with a preparation of the active ingredient of the desired concentration and the plants are infested with the brown planthopper (Nilaparvata lugens).
After 4 days mortality in % is determined. 100% means all planthoppers have been killed and 0% means none of the planthoppers have been killed.

[6] = tested on: fall armyworm larvae (Spodoptera frugiperda); assay: Spodoptera frugiperda spray test; details: 168 h, read-out: activity (mortality)
In short: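 Compound in acetone/DMF, diluted in water with 1000 ppm alkylarylpolyglycol ether emulsifier, sprayed on maize leaf sections. Dried leaves infested with fall armyworm larvae; % mortality after 7 days (100% = all killed, 0% = none).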

[7] = tested on: Aedes aegypti strain MONHEIM; assay: Aedes aegypti test (AEDSAE surface treatment & contact assay); details: 24 hours after contact, read-out: efficacy (mortality); for mortality at 20 mg/m2: surface concentration 20 mg/m^2, exposure 30 minutes; for mortality at 4 mg/m2: surface concentration 4 mg/m^2, exposure 30 minutes
In short: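 Compound in acetone (2 mg/ml) with 2000 ppm RME pipetted onto glazed tile and dried; adult Aedes aegypti MONHEIM exposed 30 min. Percent mortality scored 24 h after contact.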

[8] = tested on: Musca domestica strain WHO-N; assay: Musca domestica test (MUSCDO surface treatment & contact assay); details: 24 hours after contact, read-out: efficacy (mortality); for mortality at 4 mg/m2: surface concentration 4 mg/m^2, exposure 30 minutes; for mortality at 20 mg/m2: surface concentration 20 mg/m^2, exposure 30 minutes
Method: Musca domestica Test (MUSCDO Surface Treatment & Contact Assay)
(§1) Solvent: Aceton+2000 ppm rapeseed oil methyl ester (RME)
(§2) In order to produce a sufficient, active ingredient containing solution it is necessary to solve the test compound in the solvent-mix (acetone at 2 mg/ml/RME 2000 ppm). This solution is pipetted onto a glazed tile and after evaporation of the acetone, adult flies of the species Musca domestica strain WHO—N are placed onto the dried surface. The exposure time is 30 minutes. Mortality in percent (%) is determined 24 hours after contact of the insects to the treated surface. 100% mortality means that all tested insects are dead, whereas 0% means that no insect died.

[9] = tested on: Rhipicephalus microplus larvae (strain Parkhurst, resistant against synthetic pyrethroids); assay: Rhipicephalus (Boophilus) microplus in-vitro contact test, larval cattle tick; details: after 48 hours, read-out: activity (efficacy: larvae dead or moribund); for pest or weed control at 100 g/ha: application rate 1 pg/cm^2 (=100 g/ha); for pest or weed control at 500 g/ha: application rate 5 pg/cm^2 (=500 g/ha)
In short: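 Acetone solutions coated onto inner walls of glass tubes by rotation (900 ppm giving 5 μg/cm^2); after evaporation, 20-50 larvae added per tube and held at 27° C., 85% relative humidity. Efficacy read after 48 h from negative geotactic behaviour; 100% = all larvae dead or moribund.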

[10] = tested on: adult engorged female ticks (Rhipicephalus microplus); assay: Rhipicephalus (Boophilus) microplus injection test; details: 168 h, egg deposition after 7 days, read-out: activity (efficacy: infertile eggs); for pest or weed control at 4 pg: application rate 4 pg/animal; for pest or weed control at 0.02 mg: application rate 20 μg/animal
In short: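 Efficacy is scored from egg fertility, with 100% meaning every egg infertile and 0% every egg fertile. Five engorged females per test received 1 μL DMSO solution abdominally. Eggs of unclear fertility were kept until hatching, about 42 days.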

[11] = tested on: adult cat fleas (Ctenocephalides felis); assay: Ctenocephalides felis in-vitro contact test, adult cat flea; details: application rate 5 μg/cm^2 (=500 g/ha), after 48 hours, read-out: activity (efficacy: fleas dead or moribund)
In short: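 Acetone solutions of compound coated onto inner walls of glass tubes (900 ppm giving […]); after drying, 5-10 adult Ctenocephalides felis added and held at room temperature. At 48 h, fleas placed on a 45-50° C heating plate; those unable to climb away scored dead or moribund, expressed as % efficacy.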

[12] = tested on: adult unfed cat fleas (Ctenocephalides felis); assay: Ctenocephalides felis oral test; details: 48 h, read-out: activity (mortality)
In short: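 About 20 adult unfed fleas fed through parafilm on cattle blood containing compound (DMSO stock diluted in blood), blood held at 37 °C and fleas at room temperature. Mortality (%) scored after 2 days.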

[13] = tested on: adult brown dog ticks (Rhipicephalus sanguineus); assay: Rhipicephalus sanguineus in-vitro contact test, adult brown dog ticks; details: after 48 hours, read-out: activity (efficacy: ticks dead or moribund)
In short: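 Compound in acetone was coated onto inner walls of glass tubes by rotation (2 h, 30 rpm); 900 ppm gives 5 μg/cm^2. After drying, 5-10 adult ticks were enclosed per tube at room temperature; after 48 h, heat-escape test at 45-50° C scored dead/moribund ticks as % efficacy.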

[14] = tested on: Anopheles funestus strain FUMOZ-R; assay: Anopheles funestus test (ANPHFU surface treatment & contact assay); details: 24 hours after contact, read-out: efficacy (mortality)
Method: Anopheles funestus Test (ANPHFU Surface Treatment & Contact Assay)
as §1
as §2, with “mosquitoes” for “flies”, “Anopheles funestus” for “Musca domestica”, “FUMOZ-R (Hunt et al., Med. Vet. Entomol. 2005 September; 19(3): 271-275)” for “WHO—N”

| SMILES | pest or weed control at 100 g/ha [1] | mortality at 4 ppm [2] | mortality at 100 g/ha [3] | mortality at 100 g/ha [4] | mortality at 100 g/ha [6] | mortality at 20 mg/m2 [7] | mortality at 500 g/ha [4] | mortality at 500 g/ha [5] | further results |
| --- | --- | --- | --- | --- | --- | --- | --- | --- | --- |
| C[C@H](NC(=O)c1cc(C(F)(F)F)cc(S(C)(=O)=O)c1)c1nc(C2CC2)nn1-c1ccc(C#N)cn1 [I-64] | 100% | 100% | 100% | 100% | 100% | 80 to 100% | – | – | mortality at 100 g/ha [5]: 100%; mortality at 4 mg/m2 [8]: 80 to 100%; mortality at 20 mg/m2 [8]: 80 to 100% |
| COc1nc([C@H](C)NC(=O)c2cc(OC(F)(F)F)cc(S(C)(=O)=O)c2)n(-c2ncc(Cl)cn2)n1 [I-77] | 100% | – | 100% | – | 100% | – | 100% | 100% | – |
| C[C@H](NC(=O)c1cc(OC(F)(F)F)cc(S(=O)(=O)C2CC2)c1)c1nc(C2CC2)nn1-c1ncc(Cl)cn1 [I-93] | 100% | – | 100% | – | 100% | – | 100% | 90% | – |
| C[C@H](NC(=O)c1cc(C(F)(F)F)cc(S(C)(=O)=O)c1)c1nc(Cl)nn1-c1ncccn1 [I-96, N-[(1S)-1-(5-chloro-2-pyrimidin-2-yl-1,2,4-triazol-3-yl)ethyl]-3-methylsulfonyl-5-(trifluoromethyl)benzamide] | 100% | – | – | – | 100% | – | 100% | 100% | – |
| COc1nc([C@H](C)NC(=O)c2cc(Cl)cc(S(C)(=O)=O)c2)n(-c2ccc(C#N)cn2)n1 [I-7] | 100% | 100% | 100% | 100% | 100% | – | 100% | 90% | pest or weed control at 100 g/ha [9]: 100%; pest or weed control at 500 g/ha [9]: 100%; pest or weed control at 4 pg [10]: 100%; pest or weed control at 0.02 mg [10]: 100%; pest or weed control at 5 µg/cm2 [11]: 100%; mortality at 100 ppm [12]: 100%; pest or weed control at 500 g/ha [1]: 100%; mortality at 500 g/ha [3]: 90%; mortality at 500 g/ha [6]: 100% |
| CCc1nc([C@H](C)NC(=O)c2cc(Cl)cc(S(C)(=O)=O)c2)n(-c2ccc(C#N)cn2)n1 [I-3] | – | 100% | 100% | – | 100% | 80 to 100% | 100% | 100% | pest or weed control at 100 g/ha [9]: 100%; pest or weed control at 500 g/ha [9]: 100%; pest or weed control at 0.02 mg [10]: 100%; pest or weed control at 5 µg/cm2 [11]: 90%; mortality at 100 ppm [12]: 100%; pest or weed control at 500 g/ha [1]: 100%; mortality at 500 g/ha [3]: 100%; mortality at 500 g/ha [6]: 100% |
| C[C@H](NC(=O)c1cc(OC(F)(F)F)cc(S(C)(=O)=O)c1)c1nc(C2CC2)nn1-c1ncc(Cl)cn1 [I-82] | 100% | 100% | 90% | 100% | 100% | 80 to 100% | 100% | 90% | mortality at 4 mg/m2 [8]: 80 to 100%; mortality at 20 mg/m2 [8]: 80 to 100% |
| C[C@H](NC(=O)c1cc(C(F)(F)F)cc(S(C)(=O)=O)c1)c1nc(Br)nn1-c1ncccn1 [I-95, N-[(1S)-1-(5-bromo-2-pyrimidin-2-yl-1,2,4-triazol-3-yl)ethyl]-3-methylsulfonyl-5-(trifluoromethyl)benzamide] | 100% | – | 90% | – | 100% | – | – | 100% | – |
| C[C@H](NC(=O)c1cc(OC(F)(F)F)cc(S(C)(=O)=O)c1)c1nc(C2CC2)nn1-c1ccc(C#N)cn1 [I-81] | 100% | 100% | 90% | 100% | 100% | – | 100% | 100% | mortality at 4 mg/m2 [7]: 80 to 100%; mortality at 4 mg/m2 [8]: 80 to 100%; mortality at 20 mg/m2 [8]: 80 to 100% |
| CC(NC(=O)c1cc(C(F)(F)F)cc(S(C)(=O)=O)c1)c1nc(Br)nn1-c1ncccn1 (stereo not shown) [I-38] | 100% | 100% | 90% | 100% | – | – | – | – | mortality at 100 g/ha [5]: 100% |
| C[C@H](NC(=O)c1cc(C#N)cc(S(C)(=O)=O)c1)c1ncnn1-c1ncccn1 [II-28] | – | 100% | – | 100% | – | 80 to 100% | 100% | 100% | pest or weed control at 4 pg [10]: 100%; pest or weed control at 0.02 mg [10]: 100%; pest or weed control at 5 µg/cm2 [11]: 100%; pest or weed control at 100 g/ha ([13]; application rate 1 pg/cm^2 (=100 g/ha)): 100%; pest or weed control at 5 µg/cm2, 500 g/ha ([13]; application rate 5 μg/cm^2 (=500 g/ha)): 100%; pest or weed control at 500 g/ha [1]: 100%; mortality at 100 g/ha [5]: 100%; mortality at 4 mg/m2 [7]: 80 to 100%; mortality at 4 mg/m2 ([14]; surface concentration 4 mg/m^2, exposure 30 minutes): 80 to 100%; mortality at 20 mg/m2 ([14]; surface concentration 20 mg/m^2, exposure 30 minutes): 80 to 100% |

From patent US20260206761A1, “HETEROARYL-TRIAZOLE COMPOUNDS AS PESTICIDES” (Bayer Aktiengesellschaft, priority 2019, published 2026)
